Reference: patent publication US20240009191A1, “METHOD AND COMPOSITION FOR THE TREATMENT OF DISEASE” (DIMERIX BIOSCIENCE PTY LTD, priority 2019, published 2024)

How the values were obtained:
AT1R and CXCR2 = target: T1, AT1R and CXCR2 (Homo sapiens, UniProt P25025+P30556); assay: IP1 accumulation, HEK293 cells transiently-transfected with AT1R and CXCR2; assay type: cell-based
T1 sequence (P30556 1-359): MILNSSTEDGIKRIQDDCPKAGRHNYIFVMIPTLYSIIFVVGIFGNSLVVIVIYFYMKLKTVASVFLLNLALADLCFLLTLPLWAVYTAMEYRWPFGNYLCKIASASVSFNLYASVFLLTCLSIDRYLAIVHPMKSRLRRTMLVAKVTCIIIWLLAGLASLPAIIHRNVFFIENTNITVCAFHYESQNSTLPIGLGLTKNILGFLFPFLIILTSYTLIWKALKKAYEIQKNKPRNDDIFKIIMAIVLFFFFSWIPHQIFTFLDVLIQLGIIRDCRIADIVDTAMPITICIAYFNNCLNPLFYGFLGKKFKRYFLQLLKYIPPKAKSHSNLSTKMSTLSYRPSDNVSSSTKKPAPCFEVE
T1 sequence (P25025 1-360): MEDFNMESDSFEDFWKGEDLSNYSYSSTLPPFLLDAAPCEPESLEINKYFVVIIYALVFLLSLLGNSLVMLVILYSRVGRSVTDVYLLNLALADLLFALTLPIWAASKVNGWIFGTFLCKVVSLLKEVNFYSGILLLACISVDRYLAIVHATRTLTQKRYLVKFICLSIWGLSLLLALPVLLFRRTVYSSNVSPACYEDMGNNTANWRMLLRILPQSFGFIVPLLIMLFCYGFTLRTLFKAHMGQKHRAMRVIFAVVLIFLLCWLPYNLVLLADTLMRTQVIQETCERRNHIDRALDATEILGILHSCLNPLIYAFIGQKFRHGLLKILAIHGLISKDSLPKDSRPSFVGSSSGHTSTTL
Description: Referring now to FIG. 2, Receptor activation of the phospholipase C pathway was detected through the measurement of D-myo-Inositol 1-Phosphate (IP1) by competitive immunoassay (IP-one—Gq Kit, Cisbio 62IPAPEC). Human Embryonic Kidney (HEK) 293 cells were transiently transfected in suspension with the AGTR1 vector (Origene RC212008) alone or co-transfected with the CXCR2 vector (Origene Cat RC207794) using FuGene™ HD reagent (Promega E2311). […] Agonists were prepared in a threefold serial dilution in stimulation buffer+0.1% BSA and added to the assay to give the appropriate final concentration-response curves, and co-stimulation at a single concentration as required. An IP1 standard curve was also constructed in 14 μl Stimulation Buffer+0.1% BSA. Incubations were conducted for 90 min at 37° C., 5% CO2, after which 3 μl IP1-d2 Reagent and 3 μl IP1 Tb Cryptate Antibody (Cisbio 62IPAPEC), in Lysis & Detection buffer, were added to each well for 60 min at room temperature. Plates were read on a HTRF® compatible reader (PHERAstar™, BMG Labtech), using 337 nm excitation and collecting donor/acceptor emission at 620 nm and 665 nm. A standard curve was plotted to interpolate unknown HTRF ratio (665/620×10 000) measurements as IP1 concentration (nM). […]

AT1R-CXCR2 heteromer = target: T2, AT1R-CXCR2 heteromer (Homo sapiens, UniProt P25025+P30556); assay: BRET trafficking of AT1R/Rluc8 (Venus/Kras, Rab5) with unlabelled CXCR2, pre-treatment with vehicle or antagonists/inverse agonists; assay type: cell-based; conditions: pre-treatment with vehicle, 100 nM AngII only or with 10 nM CXCL8
T2 sequence (P30556 1-359): T1 sequence (P30556 1-359)
T2 sequence (P25025 1-360): T1 sequence (P25025 1-360)
Description: HEK293FT cells were seeded in 6-well plates at a density of approximately 700,000 cells/well and maintained at 37° C., 5% CO2 in Complete Media (DMEM containing 0.3 mg/ml glutamine, 100 IU/ml penicillin and 100 μg/ml streptomycin (Gibco/Thermo Fisher)) supplemented with 10% fetal calf serum (FCS; Bovogen). Transient transfections were carried out 24 h after seeding using FuGene6™ (Promega) according to manufacturer instructions. 24 h post-transfection, cells were washed with PBS, detached using 0.05% trypsin/0.53 mM EDTA, resuspended in HEPES-buffered phenol red free Complete Media containing 5% FCS and added to a poly-L-lysine-coated white 96-well microplate (Greiner Bio-One). 48 h post-transfection, bioluminescence resonance energy transfer (BRET) assays were carried out following pre-incubation of cells with EnduRen™ (Promega) at a final concentration of 30 μM, at 37° C., 5% CO2 for 2 h. BRET measurements were taken at 37° C. using the LUMlstar™ or CLARIOstar™ (BMG Labtech).
For antagonist/inverse agonist assays, cells were pre-incubated with EnduRen for 1.5 hours, followed by the addition of vehicle or antagonists/inverse agonists (10 μM) for another 30 minutes.
The BRET signal observed between interacting proteins is normalized by subtracting the background BRET ratio. […] In the following examples, the second calculation will be used and the signal is described as ligand-induced BRET′. Furthermore, for data shown in FIGS. 4 to 20, all data points in a given set are corrected relative to the final data point prior to agonist treatment, which is fixed to zero. In keys on FIGS. 7 to 20, “>” means “followed by after 50 minutes”, with agonists added at time zero on the x-axes.
Prior to agonist treatment (added at 0 minutes), a baseline BRET signal was recorded for each of the combinations for 20 minutes. Data were calculated as ligand-induced BRET relative to the ‘vehicle followed by vehicle’ (veh>veh) data set.

Angiotensin II [AngII]
Rmax, IP1 accumulation (AT1R and CXCR2): 567 nM
proximity of AT1R/Rluc8 to Venus/Kras (BRET) (AT1R-CXCR2 heteromer; FIG. 19A, 19B): marked reduction
proximity of AT1R/Rluc8 to Venus/Rab5 (BRET) (AT1R-CXCR2 heteromer; FIG. 20A, 20B): marked increase
